Reference: patent publication US20230081426A1, “COMPOUNDS AND METHODS FOR KRAS MODULATION AND INDICATIONS THEREFOR” (Plexxikon Inc., priority 2020, published 2023)

target: T1, G12D-mutant human KRAS (amino acid residues 1-188) (Homo sapiens, UniProt P01116, G12D); experiment: KRAS Binding Disruption Assay (AlphaScreen; biotinylated KRpep-2d analogue or RAF1-RBD), G12D; conditions: KRAS G12D; geometric mean; read-out: KRAS GMean IC50 (uM) MUTATION: G12D
T1 construct: G12D or G12C-mutant human KRAS (amino acid residues 1-188) with FLAG tag; made in house; host or cells: E. coli
Method: Compound binding disrupts the interaction of KRpep-2d or RAF1-RBD with KRAS, leading to a decrease in Alpha signal.
All assay components were prepared in 20 mM HEPES (pH 7.5), 100 mM NaCl, 5 mM MgCl2, 0.01% Tween-20, and 0.01% BSA. Biotinylated analogues of KRpep-2d were custom synthesized. The binding disruption assays were performed using 5-20 nM of mutant KRAS and 5-20 nM of either biotinylated KRpep-2d analogue or RAF1-RBD. 19 μL of KRAS protein and 4 μL of biotinylated KRpep-2d or RAF1-RBD were added to the wells of a 384-well plate containing 1 μL of various concentrations of test compound or DMSO vehicle. 16 wells containing KRAS, biotinylated KRpep-2d or RAF1-RBD, and 5% DMSO served as high controls. 16 wells containing KRAS only and 5% DMSO served as low controls. Binding reactions were incubated for 1 hour at 25° C., then Anti-Flag Acceptor and Streptavidin Donor Alpha beads were added at a final concentration of 10 μg/mL for an additional hour at room temperature. Alpha signal was read out on a Perkin Elmer Envision HTS instrument. The percentage inhibition at individual compound concentrations relative to high and low controls was calculated. The data were analyzed by using nonlinear regression to generate IC50 values.

T1 sequence (P01116 1-188 isoform P01116-2 G12D): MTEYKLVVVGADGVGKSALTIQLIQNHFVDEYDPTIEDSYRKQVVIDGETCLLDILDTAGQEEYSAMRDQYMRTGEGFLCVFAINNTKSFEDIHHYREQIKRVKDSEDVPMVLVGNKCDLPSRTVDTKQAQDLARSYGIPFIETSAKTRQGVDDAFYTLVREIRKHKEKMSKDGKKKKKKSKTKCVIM

IC50, 0.0001 to 10 µM:
O=C(CO)C1(O)CN(c2nc(N3C[C@H]4CC[C@@H](C3)N4)c3ccc(-c4cc(O)cc5ccccc45)c(F)c3n2)C1 [P-0507, 1-(1-(4-((1R,5S)-3,8-diazabicyclo[3.2.1]octan-3-yl)-8-fluoro-7-(3-hydroxynaphthalen-1-yl)quinazolin-2-yl)-3-hydroxyazetidin-3-yl)-2-hydroxyethan-1-one]
Oc1cc(-c2ccc3c(N4C[C@H]5CC[C@@H](C4)N5)nc(N4CCC5(CNC5)C4)nc3c2F)c2ccccc2c1 [P-0508, 4-(4-((1R,5S)-3,8-diazabicyclo[3.2.1]octan-3-yl)-8-fluoro-2-(2,6-diazaspiro[3.4]octan-6-yl)quinazolin-7-yl)naphthalen-2-ol]
Oc1cc(-c2ccc3c(N4C[C@H]5CC[C@@H](C4)N5)nc(N4CC5CCNCC5C4)nc3c2F)c2ccccc2c1 (stereo partly drawn) [P-0509, 4-(4-((1R,5S)-3,8-diazabicyclo[3.2.1]octan-3-yl)-8-fluoro-2-(octahydro-2H-pyrrolo[3,4-c]pyridin-2-yl)quinazolin-7-yl)naphthalen-2-ol]
C#Cc1cccc2[nH]cc(-c3ccc4c(N5C[C@H]6CC[C@@H](C5)N6)nc(OCC56CCCN5CCC6)nc4c3F)c12 [P-0513, 4-((1R,5S)-3,8-diazabicyclo[3.2.1]octan-3-yl)-7-(4-ethynyl-1H-indol-3-yl)-8-fluoro-2-((tetrahydro-1H-pyrrolizin-7a(5H)-yl)methoxy)quinazoline]
CC(=O)c1c(F)ccc2[nH]cc(-c3ccc4c(N5C[C@H]6CC[C@@H](C5)N6)nc(OCC56CCCN5CCC6)nc4c3F)c12 [P-0514]
C#Cc1c(F)ccc2[nH]cc(-c3ccc4c(N5C[C@H]6CC[C@@H](C5)N6)nc(OCC56CCCN5CCC6)nc4c3F)c12 [P-0515]
CC(CO)(COc1nc(N2C[C@H]3CC[C@@H](C2)N3)c2ccc(-c3cc(O)cc4ccccc34)c(F)c2n1)c1ccccc1 (stereo partly drawn) [P-0516, 4-(4-((1R,5S)-3,8-diazabicyclo[3.2.1]octan-3-yl)-8-fluoro-2-(3-hydroxy-2-methyl-2-phenylpropoxy)quinazolin-7-yl)naphthalen-2-ol]
O=C(O)CCc1cccc2[nH]cc(-c3ccc4c(N5C[C@H]6CC[C@@H](C5)N6)nc(OCC56CCCN5CCC6)nc4c3F)c12 [P-0518, 3-(3-(4-((1R,5S)-3,8-diazabicyclo[3.2.1]octan-3-yl)-8-fluoro-2-((tetrahydro-1H-pyrrolizin-7a(5H)-yl)methoxy)quinazolin-7-yl)-1H-indol-4-yl)propanoic acid]
N#CCCc1cccc2[nH]cc(-c3ccc4c(N5C[C@H]6CC[C@@H](C5)N6)nc(OCC56CCCN5CCC6)nc4c3F)c12 [P-0519, 3-(3-(4-((1R,5S)-3,8-diazabicyclo[3.2.1]octan-3-yl)-8-fluoro-2-((tetrahydro-1H-pyrrolizin-7a(5H)-yl)methoxy)quinazolin-7-yl)-1H-indol-4-yl)propanenitrile]
O=C1NCCN1CCOc1nc(N2C[C@H]3CC[C@@H](C2)N3)c2ccc(-c3cc(O)cc4ccccc34)c(F)c2n1 [P-0520, 1-(2-((4-((1R,5S)-3,8-diazabicyclo[3.2.1]octan-3-yl)-8-fluoro-7-(3-hydroxynaphthalen-1-yl)quinazolin-2-yl)oxy)ethyl)imidazolidin-2-one]
C#Cc1cccc2cccc(-c3ccc4c(N5C[C@H]6CC[C@@H](C5)N6)nc(OCC56CCCN5CCC6)nc4c3F)c12 [P-0521, 4-((1R,5S)-3,8-diazabicyclo[3.2.1]octan-3-yl)-7-(8-ethynylnaphthalen-1-yl)-8-fluoro-2-((tetrahydro-1H-pyrrolizin-7a(5H)-yl)methoxy)quinazoline]
CC(=O)c1cccc2cccc(-c3ccc4c(N5C[C@H]6CC[C@@H](C5)N6)nc(OCC56CCCN5CCC6)nc4c3F)c12 [P-0522, 1-(8-(4-((1R,5S)-3,8-diazabicyclo[3.2.1]octan-3-yl)-8-fluoro-2-((tetrahydro-1H-pyrrolizin-7a(5H)-yl)methoxy)quinazolin-7-yl)naphthalen-1-yl)ethan-1-one]
Cc1ccc2[nH]ncc2c1-c1c(Cl)cc2c(N3C[C@H]4CC[C@@H](C3)N4)nc(OCC34CCCN3CCC4)nc2c1F [P-0523, 4-((1R,5S)-3,8-diazabicyclo[3.2.1]octan-3-yl)-6-chloro-8-fluoro-7-(5-methyl-1H-indazol-4-yl)-2-((tetrahydro-1H-pyrrolizin-7a(5H)-yl)methoxy)quinazoline]
OCC(CO)COc1nc(N2C[C@H]3CC[C@@H](C2)N3)c2ccc(-c3cc(O)cc4ccccc34)c(F)c2n1 [P-0524, 2-(((4-((1R,5S)-3,8-diazabicyclo[3.2.1]octan-3-yl)-8-fluoro-7-(3-hydroxynaphthalen-1-yl)quinazolin-2-yl)oxy)methyl)propane-1,3-diol]
CC(CO)(CO)COc1nc(N2C[C@H]3CC[C@@H](C2)N3)c2ccc(-c3cc(O)cc4ccccc34)c(F)c2n1 [P-0525, 2-(((4-((1R,5S)-3,8-diazabicyclo[3.2.1]octan-3-yl)-8-fluoro-7-(3-hydroxynaphthalen-1-yl)quinazolin-2-yl)oxy)methyl)-2-methylpropane-1,3-diol]
Oc1cc(-c2ccc3c(N4C[C@H]5CC[C@@H](C4)N5)nc(N4CCC5(CCNC5)C4)nc3c2F)c2ccccc2c1 (stereo partly drawn) [P-0526, 4-(4-((1R,5S)-3,8-diazabicyclo[3.2.1]octan-3-yl)-8-fluoro-2-(2,7-diazaspiro[4.4]nonan-2-yl)quinazolin-7-yl)naphthalen-2-ol]
Oc1cc(-c2ccc3c(N4C[C@H]5CC[C@@H](C4)N5)nc(N4CCC5(CCOCC5)C4)nc3c2F)c2ccccc2c1 [P-0527, 4-(4-((1R,5S)-3,8-diazabicyclo[3.2.1]octan-3-yl)-8-fluoro-2-(8-oxa-2-azaspiro[4.5]decan-2-yl)quinazolin-7-yl)naphthalen-2-ol]
Oc1cc(-c2ccc3c(N4C[C@H]5CC[C@@H](C4)N5)nc(N4CCC5(CCOC5)C4)nc3c2F)c2ccccc2c1 (stereo partly drawn) [P-0528, 4-(4-((1R,5S)-3,8-diazabicyclo[3.2.1]octan-3-yl)-8-fluoro-2-(2-oxa-7-azaspiro[4.4]nonan-7-yl)quinazolin-7-yl)naphthalen-2-ol]
CNCC1(CC#N)CCN(c2nc(N3C[C@H]4CC[C@@H](C3)N4)c3ccc(-c4cc(O)cc5ccccc45)c(F)c3n2)C1 (stereo partly drawn) [P-0529, 2-(1-(4-((1R,5S)-3,8-diazabicyclo[3.2.1]octan-3-yl)-8-fluoro-7-(3-hydroxynaphthalen-1-yl)quinazolin-2-yl)-3-((methylamino)methyl)pyrrolidin-3-yl)acetonitrile]
CCN(CC)C1CCN(c2nc(N3C[C@H]4CC[C@@H](C3)N4)c3ccc(-c4cc(O)cc5ccccc45)c(F)c3n2)C1 (stereo partly drawn) [P-0530, 4-(4-((1R,5S)-3,8-diazabicyclo[3.2.1]octan-3-yl)-2-(3-(diethylamino)pyrrolidin-1-yl)-8-fluoroquinazolin-7-yl)naphthalen-2-ol]
CCNC1CCN(c2nc(N3C[C@H]4CC[C@@H](C3)N4)c3ccc(-c4cc(O)cc5ccccc45)c(F)c3n2)C1 (stereo partly drawn) [P-0531, 4-(4-((1R,5S)-3,8-diazabicyclo[3.2.1]octan-3-yl)-2-(3-(ethylamino)pyrrolidin-1-yl)-8-fluoroquinazolin-7-yl)naphthalen-2-ol]
Oc1cc(-c2c(Cl)cc3c(N4C[C@H]5CC[C@@H](C4)N5)nc(OCCCN4CCC(F)(F)C4)nc3c2F)c2ccccc2c1 [P-0532, 4-(4-((1R,5S)-3,8-diazabicyclo[3.2.1]octan-3-yl)-6-chloro-2-(3-(3,3-difluoropyrrolidin-1-yl)propoxy)-8-fluoroquinazolin-7-yl)naphthalen-2-ol]
Fc1c(-c2csc3ccccc23)ccc2c(N3C[C@H]4CC[C@@H](C3)N4)nc(OCC34CCCN3CCC4)nc12 [P-0533, 7-(benzo[b]thiophen-3-yl)-4-((1R,5S)-3,8-diazabicyclo[3.2.1]octan-3-yl)-8-fluoro-2-((tetrahydro-1H-pyrrolizin-7a(5H)-yl)methoxy)quinazoline]
Fc1c(-c2csc3cccc(Cl)c23)ccc2c(N3C[C@H]4CC[C@@H](C3)N4)nc(OCC34CCCN3CCC4)nc12 [P-0534]
CCc1cc(F)cc2[nH]cc(-c3ccc4c(N5C[C@H]6CC[C@@H](C5)N6)nc(OCC56CCCN5CCC6)nc4c3F)c12 [P-0535, 4-((1R,5S)-3,8-diazabicyclo[3.2.1]octan-3-yl)-7-(4-ethyl-6-fluoro-1H-indol-3-yl)-8-fluoro-2-((tetrahydro-1H-pyrrolizin-7a(5H)-yl)methoxy)quinazoline]
Oc1cc(-c2ccc3c(N4C[C@H]5CC[C@@H](C4)N5)nc(OCC4(C(F)(F)F)CC4)nc3c2F)c2ccccc2c1 [P-0536, 4-(4-((1R,5S)-3,8-diazabicyclo[3.2.1]octan-3-yl)-8-fluoro-2-((1-(trifluoromethyl)cyclopropyl)methoxy)quinazolin-7-yl)naphthalen-2-ol]
